In PMC11900932 (International Journal of Molecular Sciences, 2025):
Counter-ions that a name gives are not always drawn. Like-named read-outs stand apart in the source and are kept apart here.

Assays:
[1] = target: T1, SARS-CoV-2 3CL^pro (Severe acute respiratory syndrome coronavirus 2, UniProt P0DTD1); assay: biochemical
[2] = target: T1, SARS-CoV-2 3CL^pro; format: biochemical
[3] = target: SARS-CoV 3CL^pro (Severe acute respiratory syndrome coronavirus, UniProt P0C6X7); assay: biochemical
[4] = target: MERS-CoV 3CL^pro (Middle East respiratory syndrome-related coronavirus, UniProt K9N7C7); assay: biochemical
[5] = system: SARS-CoV-2-S pseudovirus; assay: microbe, parasite or virus in culture; format: cell-based; conditions: for IC50: Pseudovirus, read-out: IC50, pseudovirus activity inhibition
[6] = system: SARS-CoV-2-S pseudovirus Omicron; assay: microbe, parasite or virus in culture; format: cell-based
[7] = system: SARS-CoV-2-S pseudovirus Delta; assay: microbe, parasite or virus in culture; format: cell-based
[8] = system: SARS-CoV-2-S pseudovirus Gamma; assay: microbe, parasite or virus in culture; format: cell-based
[9] = target: SARS-CoV-2 S-RBD/ACE2 interaction (Severe acute respiratory syndrome coronavirus 2, UniProt P0DTC2); format: cell-based
[10] = target: human ACE2 (Homo sapiens, UniProt Q9BYF1); assay: SPR binding to immobilized ACE2
Experimental: ACE2 and S-RBD were separately immobilized onto a CM5 chip via amine coupling in sodium acetate buffer (pH 4.0 for ACE2 and pH 5.5 for S-RBD) at a flow rate of 10 μL/min. After the chip surface was activated with NHS and EDC, ACE2 and S-RBD were injected at concentrations of 20 μg/mL and 30 μg/mL, respectively, and the surface was blocked using ethanolamine. […] All measurements were performed in PBS buffer (0.05% Tween-20, 5% DMSO, pH 7.4) at 25 °C, with corrections applied to address refractive index shifts and data drift. The binding affinities were quantified by fitting the interaction data to a Langmuir 1:1 binding model using Biacore Evaluation software.

[11] = target: SARS-CoV-2 S-RBD (Severe acute respiratory syndrome coronavirus 2, UniProt P0DTC2); assay: biochemical; format: binding
[12] = target: T2, CTSB (Homo sapiens, UniProt P07858); assay: Host protease selectivity test, Cathepsin B; format: biochemical; conditions: 5 and 50 μM
T2 construct: purchased SinoBiological, Beijing, China
Experimental: Target selectivity tests toward host proteases were conducted based on our previous method. Cathepsin B (CTSB) (SinoBiological, Beijing, China) at a final concentration of 100 nM was prepared in buffer with 20 mM sodium acetate, 1 mM EDTA, and 2 mM DTT (pH 5.5) and incubated for 30 min at 30 °C. Next, the working solution of CTSB was diluted into 500 pM with the reaction buffer (100 mM MES pH 6.0, 1 mM EDTA, 2 mM DTT, and 0.01% Tween-20) and kept for 30 min. Then, the FRET substrate Z-Phe-Arg-AMC (NJPeptide, Nanjing, China) at 5 μM was added to activate the enzymatic reaction. The fluorescence signals were measured using a Cytation 5 plate reader (BioTek, Winooski, VT, USA) at 360 nm (excitation)/460 nm (emission) for 20 min.

[13] = target: T3, CTSL (Homo sapiens, UniProt P07711); assay: Host protease selectivity test, Cathepsin L; format: biochemical; conditions: 5 and 50 μM
T3 construct: purchased SinoBiological, Beijing, China
Experimental: Cathepsin L (CTSL) (SinoBiological, Beijing, China) at a final concentration of 100 nM in buffer (20 mM sodium acetate, 1 mM EDTA, and 5 mM DTT, pH 5.5) was activated by incubation at 30 °C. Then, the working solution of CTSL was diluted into 300 pM with the reaction buffer and incubated for 30 min. The addition of 5 μM FRET substrate Z-Phe-Arg-AMC (NJPeptide, Nanjing, China) initiated the reaction. The fluorescence signals at 360 nm (excitation)/460 nm (emission) were measured for 20 min with the Cytation 5 plate reader (BioTek, Winooski, VT, USA).

[14] = target: T4, CTRC (Homo sapiens, UniProt Q99895); assay: Host protease selectivity test, Chymotrypsin; format: biochemical; conditions: 5 and 50 μM
T4 construct: purchased Novoprotein, Suzhou, China
T4 sequence (Q99895 30-268): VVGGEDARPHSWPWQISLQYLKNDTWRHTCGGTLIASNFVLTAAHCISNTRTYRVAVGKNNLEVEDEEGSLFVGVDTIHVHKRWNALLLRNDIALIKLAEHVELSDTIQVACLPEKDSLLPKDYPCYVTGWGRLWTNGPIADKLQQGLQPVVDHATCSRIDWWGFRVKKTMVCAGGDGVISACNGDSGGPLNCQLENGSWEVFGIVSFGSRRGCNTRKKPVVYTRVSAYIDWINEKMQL
Experimental: Chymotrypsin (CTRC) (Novoprotein, Suzhou, China) at a final concentration of 5 μg/mL was incubated in a buffer solution containing 50 mM Tris, 10 mM CaCl2, and 150 mM NaCl at pH 7.5 for a period of 30 min. Subsequently, trypsin was added to the mixture at the same concentration (5 μg/mL) and incubated for an additional 60 min at 37 °C. Following this, the reaction was initiated by adding 100 µM of the Succinyl-Ala-Ala-Pro-Phe-p-nitroanilide substrate (NJPeptide, Nanjing, China), and the mixture was incubated for another 60 min at 37 °C. Finally, the activity of CTRC was quantified by measuring the absorbance at 405 nm using a Cytation 5 plate reader (BioTek, Winooski, VT, USA).

[15] = target: T5, TMPRSS2 (Homo sapiens, UniProt O15393); assay: Host protease selectivity test, TMPRSS2; format: biochemical
T5 construct: purchased MedChemExpress, Shanghai, China
Experimental: TMPRSS2 protease at the concentration of 5 nM (MedChemExpress, Shanghai, China) was incubated with compounds in the reaction buffer (50 mM Tris-HCl, 1 mM CaCl2, 0.1% Tween 20, pH 8.0) for 1 h at 37 °C. Then, 45 μM substrate Boc-GIn-Ala-Arg-AMC (NJPeptide, Nanjing, China) was added to initiate the reaction. Fluorescence intensity was detected using a Cytation 5 plate reader at 380 nm (excitation)/460 nm (emission) for 1.5 h.

[16] = target: T1, SARS-CoV-2 3CL^pro
[17] = set-up: method as in doi:10.1177/009286150103500134; conditions: cited from earlier work
[18] = in vitro; conditions: human
[19] = Cell viability assay (CCK-8) on Vero-E6 cells; conditions: African green monkey
[20] = target: T1, SARS-CoV-2 3CL^pro; conditions: cited from earlier work
[21] = target: T1, SARS-CoV-2 3CL^pro; conditions: cited from earlier work; remark: listed apart in the source

T5 sequence (O15393 whole entry): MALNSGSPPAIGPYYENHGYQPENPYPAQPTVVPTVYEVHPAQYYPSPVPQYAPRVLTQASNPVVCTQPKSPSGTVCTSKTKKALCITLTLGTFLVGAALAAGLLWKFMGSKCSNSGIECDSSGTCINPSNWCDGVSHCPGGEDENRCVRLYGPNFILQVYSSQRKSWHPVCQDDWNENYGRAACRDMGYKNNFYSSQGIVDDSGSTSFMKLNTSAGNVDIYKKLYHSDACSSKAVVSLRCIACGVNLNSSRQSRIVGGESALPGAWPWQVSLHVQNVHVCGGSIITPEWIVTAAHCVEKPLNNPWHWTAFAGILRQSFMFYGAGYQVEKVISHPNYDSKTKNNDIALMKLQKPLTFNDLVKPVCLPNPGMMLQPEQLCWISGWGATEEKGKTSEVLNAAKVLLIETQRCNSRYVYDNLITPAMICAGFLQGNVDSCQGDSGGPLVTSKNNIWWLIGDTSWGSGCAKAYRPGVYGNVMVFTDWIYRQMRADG
T3 sequence (P07711 114-333): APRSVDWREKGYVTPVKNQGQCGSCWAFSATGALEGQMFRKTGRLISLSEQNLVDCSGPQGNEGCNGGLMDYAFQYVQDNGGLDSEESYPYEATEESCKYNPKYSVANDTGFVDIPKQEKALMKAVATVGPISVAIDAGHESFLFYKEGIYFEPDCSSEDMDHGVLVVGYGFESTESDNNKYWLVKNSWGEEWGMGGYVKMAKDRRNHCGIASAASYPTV
Chain of MERS-CoV 3CL^pro (K9N7C7 3248-3553 limits assumed): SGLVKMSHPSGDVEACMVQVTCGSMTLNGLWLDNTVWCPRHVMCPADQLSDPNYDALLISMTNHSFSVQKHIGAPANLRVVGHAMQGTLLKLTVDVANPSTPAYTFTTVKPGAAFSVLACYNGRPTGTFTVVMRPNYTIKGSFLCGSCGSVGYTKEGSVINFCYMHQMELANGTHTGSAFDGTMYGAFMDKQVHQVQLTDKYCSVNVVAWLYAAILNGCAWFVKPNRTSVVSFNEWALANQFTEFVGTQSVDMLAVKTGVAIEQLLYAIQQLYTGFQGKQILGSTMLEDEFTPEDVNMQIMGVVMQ
Chain of human ACE2 (Q9BYF1 18-805): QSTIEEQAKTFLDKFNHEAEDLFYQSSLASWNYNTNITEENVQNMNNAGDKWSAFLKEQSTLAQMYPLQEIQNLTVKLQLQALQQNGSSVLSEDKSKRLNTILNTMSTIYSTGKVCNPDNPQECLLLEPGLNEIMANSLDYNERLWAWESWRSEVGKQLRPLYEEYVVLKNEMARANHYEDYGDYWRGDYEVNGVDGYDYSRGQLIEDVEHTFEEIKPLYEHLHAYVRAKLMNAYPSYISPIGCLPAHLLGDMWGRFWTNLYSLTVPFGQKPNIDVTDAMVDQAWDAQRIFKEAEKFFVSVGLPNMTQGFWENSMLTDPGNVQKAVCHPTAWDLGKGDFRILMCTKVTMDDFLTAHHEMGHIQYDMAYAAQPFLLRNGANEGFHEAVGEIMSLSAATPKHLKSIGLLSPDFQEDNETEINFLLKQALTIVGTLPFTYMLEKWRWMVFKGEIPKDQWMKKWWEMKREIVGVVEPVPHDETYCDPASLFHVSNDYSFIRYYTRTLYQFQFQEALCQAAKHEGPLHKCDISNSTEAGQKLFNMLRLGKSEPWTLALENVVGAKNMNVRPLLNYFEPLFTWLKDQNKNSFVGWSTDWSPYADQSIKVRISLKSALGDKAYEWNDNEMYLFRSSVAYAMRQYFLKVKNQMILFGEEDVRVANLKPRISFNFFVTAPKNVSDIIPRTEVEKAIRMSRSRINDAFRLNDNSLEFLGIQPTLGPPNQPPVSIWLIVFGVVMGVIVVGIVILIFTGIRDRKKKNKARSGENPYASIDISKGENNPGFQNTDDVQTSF

Q: For `Oc1cc(O)c2c(c1)O[C@H](c1ccc(O)c(O)c1)[C@H](O)C2` [Epicatechin], which IC50 [1] is on record?
A: 3.3 µM

Q: With `C[C@@H]1O[C@@H](OC[C@H]2O[C@@H](Oc3c(-c4cc(O)c(O)c(O)c4)oc4cc(O)cc(O)c4c3=O)[C@H](O)[C@@H](O)[C@@H]2O)[C@H](O)[C@H](O)[C@H]1O` [Myricetin-3-O-rutinoside] as the compound, how does the IC50 [1] read?
A: 0.85 µM

Q: With `O=C(c1cc(O)c(O)c(O)c1)c1ccc(O)c(O)c1O` [Exifone] as the compound, how does the inhibition at 5 µM ([1]; read-out: inhibition of SARS-CoV-2 3CLpro activity) read?
A: > 50%

Q: And the type of inhibition [2]?
A: non-competitive inhibition with an allosteric mechanism

Q: And the IC50 [3]?
A: 3.36 ± 0.08 µM

Q: And the IC50 [4]?
A: 13.9 ± 0.38 µM

Q: What about the IC50 [5] of the same compound?
A: 76.5 ± 32.6 µM

Q: What about the IC50 [6] of the same compound?
A: 55.1 ± 6.15 µM

Q: And the IC50 [7]?
A: 150 ± 5.06 µM

Q: What about the IC50 [8] of the same compound?
A: 159 ± 4.95 µM

Q: And the “S-RBD binding signal on Vero-E6 cells” value [9]?
A: marked reduction in the S-RBD binding signal

Q: What about the Kd [10] of the same compound?
A: 1.93 µM

Q: What about the kd ([10]; SPR, immobilized ACE2) of the same compound?
A: 0.00045 s⁻¹

Q: What about the Kd [11] of the same compound?
A: 0.818 µM

Q: What about the “inhibition of CTSB” value [12] of the same compound?
A: neither compound significantly inhibited

Q: And the “inhibition of CTSL” value [13]?
A: neither compound significantly inhibited

Q: And the “inhibitory activity against CTRC” value [14]?
A: significant inhibitory activity

Q: And the “inhibition of TMPRSS2” value [15]?
A: neither compound significantly inhibited

Q: What about the TDI effect [16] of the same compound?
A: did not exhibit a significant TDI effect

Q: And the “reason for withdrawal from the market” value [17]?
A: hepatotoxicity

Q: What about the CC50 [18] of the same compound?
A: > 200 µM

Q: And the CC50 at 24 h ([19]; Vero-E6 cells)?
A: > 100 µM

Q: For `COC(=O)[C@@H](Cc1ccc(O)c(O)c1)OC(=O)/C=C/c1ccc(O)c(O)c1` [Methyl rosmarinate], which IC50 [20] is on record?
A: 2.5 µM

Q: Which IC50 [20] does the source give for `C/C=C1/[C@H](O[C@@H]2O[C@H](CO)[C@@H](O)[C@H](O)[C@H]2O)OC=C(C(=O)OC)[C@H]1CC(=O)OCCc1ccc(O)c(O)c1` [Oleuropein] here?
A: 3.5 µM

Q: Which IC50 [1] does the source give for `O=C(/C=C/c1ccc(O)cc1)c1ccc(O)cc1O` [Isoliquiritigenin] here?
A: 73.9 µM

Q: For `NC(CO)C(=O)NNCc1ccc(O)c(O)c1O` (centres unmarked) [Benserazide hydrochloride], which IC50 [3] is on record?
A: 3.04 ± 0.4 µM

Q: What about the IC50 [4] of the same compound?
A: 8.81 ± 0.34 µM

Q: And the “inhibition of pseudovirus entry into host cells” value [5]?
A: lacked the capacity to inhibit pseudovirus entry into host cells

Q: What about the IC50 [5] of the same compound?
A: > 200 µM

Q: And the “inhibition of CTSB” value [12]?
A: neither compound significantly inhibited

Q: What about the “inhibition of CTSL” value [13] of the same compound?
A: neither compound significantly inhibited

Q: What about the “inhibitory activity against CTRC” value [14] of the same compound?
A: did not

Q: What about the “inhibition of TMPRSS2” value [15] of the same compound?
A: neither compound significantly inhibited

Q: What about the CC50 [18] of the same compound?
A: > 200 µM

Q: What about the CC50 at 24 h [19] of the same compound?
A: > 100 µM

Q: With `O=c1cc(-c2ccc(O)c(O)c2)oc2cc(O)cc(O)c12` [luteolin] as the compound, how does the IC50 [21] read?
A: 74.9 µM

Q: With `COc1cc(-c2oc3cc(O)cc(O)c3c(=O)c2O[C@@H]2O[C@H](CO[C@@H]3O[C@@H](C)[C@H](O)[C@@H](O)[C@H]3O)[C@@H](O)[C@H](O)[C@H]2O)cc(O)c1O` [Laricitrin 3-rutinoside] as the compound, how does the IC50 [1] read?
A: 3.82 µM

Q: With `O=c1cc(-c2ccc(O)cc2)oc2cc(O)cc(O)c12` [Apigenin] as the compound, how does the IC50 [21] read?
A: 84.9 µM
